{"source": "patent US12662530B2", "about": "“Anti-ADM-antibodies binding to the free N-terminus for accelerated transition of ADM-Gly to bio-ADM in patients with ADM-Gly/ bio-ADM ratio above a threshold and combination with vitamin C” (SphingoTec GmbH, priority 2020, dated 2026)", "key": {"native PAM": {"tested_on": "native PAM", "assay": "ADM maturation activity (AMA) of native PAM in Li-Heparin plasma with antibody and varying L-ascorbate", "format": "biochemical, human", "protocol": "A serial antibody-dilution with concentrations of 0, 5, 10, 50, 100, 500 and 3000 μg/mL per well, respectively (in 20 μl) were pipetted into 96-well micro-titer plates. Then 160 μl PAM reaction buffer (100 mM Tris-HCl, 6.25 μM CuSO4, 62.5 μM amastatin, 250 μM leupeptin, 36 ng/mL ADM-Gly) with varying L-ascorbate concentrations was added to the wells and incubated for 15 min. Afterwards the reaction was started by addition of 20 μl of Li-Heparin plasma, containing native PAM Immediately after addition of plasma, 100 μl from each well were removed and inactivated by addition of EDTA (20 mM final concentration) to generate a t=0 minutes reaction point. Inactivated and non-inactivated samples were incubated for 40 minutes at 37° C. and the reaction in non-inactivated samples was stopped as described above. For quantification of produced ADM-NH2 the Sphingotest® bio-ADM Kit (Weber et al. 2017) was utilized according to manufacturer's manual. The ADM maturation activity (AMA) was calculated according to equation 1 (DF=dilution factor of sample matrix)."}, "septic patients": {"tested_on": "septic patients", "conditions": "intravenous; placebo group 46%; cited from earlier work"}}, "data": [{"smiles": "O=C1O[C@H]([C@@H](O)CO)C(O)=C1O", "note": "[ascorbate, L-ascorbic acid, reference compound]", "values": [{"measurement": "effect on ADM maturation activities", "setting": "native PAM; ascorbate in the range of 0.4-2 mM, FIG. 15", "result": "led to increasing ADM maturation activities"}, {"measurement": "activity optimum of the amidating reaction (ascorbate concentration)", "setting": "native PAM; with and without HAM8101", "result": "0.8 to 2", "unit": "mM"}, {"measurement": "mortality at day 28", "setting": "septic patients", "result": "~30", "unit": "%"}]}]}
